Patent US6686181B1, “Method for the production of L-amino acids from their racemic N-aceytyl-D, L-derivatives by enzymatic racemate cleavage by means of isolated recombinant enzymes” (Aventis Corporation GmbH, priority 1999, dated 2004)

Tested on: deac1 protein
Assay: Substrate specificity and stereoselectivity of the purified deac1 enzyme (free amino acid formed, amino acid analyzer)
Format: biochemical, Stenotrophomonas sp.
Details: 5 μg purified enzyme, 25 mM substrate, pH 7.5, 37° C., 1 h; specific activity with hippuric acid set equal to 100%
Experimental: For the investigation of substrate specificity and stereospecificity of the deac1 protein, 5 μg each of purified enzyme were incubated in 20 μl batches in 10 mM NaCl, 10 mM Na phosphate, pH=7.5 with 25 mM each of the N-acetyl-L-amino acids or of the corresponding D enantiomers mentioned in Table 1. For comparison, hippuric acid (N-benzoylglycine), the natural substrate of deacetylase, was employed. […] Table 1 indicates the relative deacetylase activities for the L-enantiomers of the various substrates.

SMILES	Rel. activity [%]
CSCC[C@H](NC(C)=O)C(=O)O [N-Ac-L-methionine]	0
CC(=O)N[C@@H](Cc1ccccc1)C(=O)O [N-Ac-L-phenylalanine]	24
CC(=O)N1CCC[C@H]1C(=O)O [N-Ac-L-proline]	0
CC(=O)N[C@@H](CO)C(=O)O [N-Ac-L-serine]	4
CC(=O)N[C@@H](Cc1c[nH]c2ccccc12)C(=O)O [N-Ac-L-tryptophan]	0.4

Same assay, conditions: 25 mM substrate, 37° C., 1 h

SMILES	cleavage of substrate by the deac1 enzyme (in words)
O=C(O)CNC(=O)c1ccccc1 [Hippuric acid (N-benzoylglycine), N-benzoylglycine, reference compound]	cleaves
CC(=O)N[C@@H](CCC(=O)O)C(=O)O [N-Ac-L-glutamic acid]	cleaves
CC(=O)N[C@@H](CCC(N)=O)C(=O)O [N-Ac-L-glutamine]	cleaves
CC(=O)N[C@@H](Cc1c[nH]cn1)C(=O)O [N-Ac-L-histidine]	cleaves
CC(=O)N[C@@H](CC(C)C)C(=O)O [N-Ac-L-leucine]	cleaves
CC(=O)N[C@@H](CCCN)C(=O)O [N-Ac-L-ornithine]	cleaves
CC(=O)N[C@@H](Cc1ccccc1)C(=O)O [N-Ac-L-phenylalanine]	cleaves
CC(=O)N[C@@H](CCP(C)(=O)O)C(=O)O [N-Ac-L-phosphinothricin]	cleaves
CC(=O)NCC(=O)O [N-Ac-glycine]	cleaves
